Read-outs that look alike come from different tables or passages of the source.
Assays:
[1] = tested on: P. falciparum male gametocytes; test: P. falciparum Dual Gamete Formation Assay (PfDGFA), male readout (exflagellation); type: cell-based, Plasmodium falciparum NF54; conditions: for inhibition at 2 µM: 24h preincubation with gametocytes
Procedure, shortened: (§1)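 Read-outs are automated image counts of exflagellation centres (brightfield, 10 frames over 1 s) and Pfs25-positive female gametes (Cy3 fluorescence).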

[2] = tested on: P. falciparum female gametocytes; test: P. falciparum Dual Gamete Formation Assay (PfDGFA), female readout (Pfs25-positive female gametes); type: cell-based, Plasmodium falciparum NF54; conditions: for inhibition at 2 µM: 24h preincubation with gametocytes
Procedure, shortened: as §1

[3] = tested on: P. falciparum male gametocytes; test: PhIDDLI timecourse assay, compound added at timepoints after triggering male gametogenesis; type: cell-based, Plasmodium falciparum NF54
Description: To gain greater understanding of their activity, selected molecules displaying different inhibition phenotypes in the initial screen were re-tested. Rather than subjecting gametocytes to a 24h preincubation prior to inducing gametogenesis, compounds were added at varying timepoints after triggering male gametogenesis. Samples were then fixed 20 min post-induction, imaged and analysed similarly using the PhIDDLI pipeline.
Alternatively, if compound action over time was to be assessed, 1.5ml tubes with appropriate dilutions of test compounds were prepared for each timepoint. Gametogenesis was then triggered in the mature gametocyte culture with ookinete medium and temperature decrease from 37°C. At appropriate times, 200 μl of triggered culture was sampled and mixed with test compound. All samples were then allowed to continue gametogenesis and fixed as described previously with paraformaldehyde after 20 min (when a DMSO-treated sample could be expected to be exflagellating).
100 μl of the fixed cell suspensions were added to wells of a 24 well plate containing 1ml PBS and a poly-l-lysine-coated glass coverslip. Cells were allowed to settle and adhere to the coverslip overnight at 4°C before coverslips were transferred to a hydrophobic membrane (Parafilm) for immunofluorescence staining in a humidified, dark box. Cells were permeabilised with 0.1% Triton-X100 in PBS for 10 min before washing in PBS three times. Non-specific binding was blocked by incubating coverslips with PBS + 10% fetal bovine serum (FBS) (blocking buffer) for 1 h. Gametocytes and microgametes were visualised by labelling with an anti-alpha tubulin antibody (raised from chicken embryo brain tubulin but cross-reacts with many other species) (clone DM1A (Sigma)) 1:500 dilution in blocking buffer for 1 h, washed as before, and then stained with an anti-mouse Alexa488 secondary antibody (Thermo-Fisher) 1:1,000 dilution in blocking buffer for a further 1 h. After a final series of washes, the coverslips were mounted on glass slides with VectaShield mountant (Vector Laboratories) containing 4′,6-diamidino-2-phenylindole (DAPI) to visualise cellular DNA.
All slides were imaged using a Nikon Ti fluorescence microscope using an x100 oil objective and 1.5x zoom. For each sample, tubulin-postive, DAPI-positive stained gametocytes/gametes were imaged at random. Z-stack images with 0.3μm slices were captured for each field of view and images deconvolved and transformed by maximum intensity projection within the Nikon NIS Elements software. Within raw images, cells were initially identified by an automated analysis pipeline developed in ICY Bioimage Analysis based upon the intensity of the tubulin staining captured which assigns a region of interest (ROI) around each cell. All ROIs were reviewed by a trained operator and adjusted if necessary to reflect the true outline of the cell (for example if two cells touching had been allocated the same ROI). Raw images contained between 1 and 8 extractable cells.
Code for the PhIDDLI pipeline was written in Python 3.8 and executed by command line within a 64-bit Ubuntu virtual machine running within Oracle VM VirtualBox 6.1. […] Principle component analysis of compound phenotypes (Fig 5) was performed using ClustViz (https://biit.cs.ut.ee/clustvis/) using ln(x+1) transformation, and k-means clustering of the resultant PCA data was coded in R and executed in R Studio version 1.1.456 to identify optimum cluster using the elbow method.

[4] = tested on: HepG2 cells; test: HepG2 cytotoxicity counter-screen; conditions: for Mean TOX: mean of the HepG2 TOX50 values; for DGFA Tox50 HepG2: HepG2 value reported with the DGFA screen
[5] = tested on: P. falciparum gametocytes; test: P. falciparum Gametocyte Viability ATP Assay (PfGCT); type: cell-based, Plasmodium falciparum; conditions: Mean TOX HepG2 over GC-ATP IC50; GREEN = >10-fold; RED = <10-fold
Source text: Fig 1 The activity of TCAMS compound identified in the Pf DGFA screen. (A) 85 molecules were confirmed active in the Pf DGFA. 58 were previously identified in one or more transmission-blocking screens. […] No molecule was identified with >4.7-fold greater activity against female gametocytes. Abbreviations (IC50 = concentration giving 50% inhibition, PbODA = P. berghei Ookinete Development Assay, PfDGFA = P. falciparum Dual Gamete Formation Assay, PfFGAA = P. falciparum Female Gametocyte Activation Assay, PfGCT = P. falciparum Gametocyte Viability ATP Assay).

[6] = tested on: P. falciparum gametocytes; design: method as in Almela et al 2015; conditions: ref Almela et al 2015; read-out: Pf Gametocyte viability (ATP) GC-ATP IC50; cited from earlier work
[7] = tested on: HepG2 cells; conditions: cited from earlier work
[8] = tested on: P. falciparum female gametocytes; design: method as in Miguel-Blanco et al 2017; conditions: ref Miguel-Blanco et al 2017; read-out: Pf female gametogenesis FGAA IC50; cited from earlier work
[9] = this study, read-out: Pf DGFA IC50 MALE
[10] = compound added concurrent with triggering male gametogenesis or 2 min later
[11] = compound added later than 2 min post-induction (up to 10 min)
[12] = this study, read-out: Pf DGFA IC50 FEM
[13] = compound added between 0 and 5 min post induction

Row | Compound | Cytotox ratio Pf Male [1] | IC50 [1, 9] [nM] | Cytotox ratio Pf Female [2] | Mean TOX [4] [µM] | Cytotox ratio Pf GC-ATP [5] | IC50 [6] [nM] | GC-ATP TOX50 HepG2 [7] [µM] | IC50 [2, 12] [nM] | other results
1 | COCCN(C)CCCOc1cc2c(cc1OC)ncn2-c1cc(OCc2ccccc2C(F)(F)F)c(C(N)=O)s1.Cl [TC14] | 22.0 | 620 | 1.4 | 13.65 | – | – | – | – | impact on proportion of cells with replicated DNA ([3]; all timepoints of addition): minimal impact; effect on exflagellation [3, 10]: substantially reduced; effect on exflagellation [3, 11]: not inhibitory
2 | CNC(=O)c1cnc(Nc2ccc(N3CCN(C)CC3)cc2)nc1Nc1ccccc1OC.O=C(O)C(F)(F)F [TC16] | 29.7 | 1200 | 3.6 | 35.63 | – | – | – | – | cells showing apparent DNA replication ([3]; compound added concurrent with induction, fixed 20 min post-induction, DMSO control 61.4%): 21.7%; effect on exflagellation [3, 10]: substantially reduced; amounts of cells showing evidence of DNA replication ([3]; compound added during the first 2 min of male gametogenesis): markedly reduced; effect on exflagellation [3, 11]: not inhibitory
3 | Br.c1cc(C2=NC3CCCCC3N2)ccc1OCCCOc1ccc(C2=NC3CCCCC3N2)cc1 (stereo not drawn) [TC17] | 27.3 | 1130 | 3.1 | 30.89 | 65.7 | 470 | 25 | – | –
4 | COCCCNC(=S)NN=C(C)c1ccccn1 [TC19] | 20.8 | 420 | 21.8 | 8.74 | 54.6 | 160 | 17 | 400 | DGFA Tox50 HepG2 [4]: 0.48 µM
5 | Nc1cc(C=Cc2ccc([N+](=O)[O-])o2)nc2ccccc12 [TC58] | 44.7 | 160 | 17.9 | 7.15 | 35.7 | 200 | 11.7 | 400 | –
6 | Cc1cccc2nc(-c3ccc(-c4cccc(CNCCN5CCNCC5)c4)cc3)[nH]c12.O=C(O)C(F)(F)F [TC67] | 10.1 | 1870 | 2.1 | 18.84 | 22.4 | 840 | 13.4 | 9110 | –
7 | CN(C)CCCn1c(N)c(-c2nc3ccccc3[nH]2)c2nc(C#N)c(C#N)nc21 [TC72] | 14.8 | 510 | 5.1 | 7.53 | 37.7 | 200 | 6.93 | 1470 | –
8 | CCC1CN2CCc3cc(OC)c(OC)cc3C2CC1CC1NCCc2cc(OC)c(OC)cc21.Cl (stereo not drawn) [TC73] | – | 3530 | – | 17.84 | – | 120 | 17.68 | 750 | IC50 [8]: 1820 nM; FGAA TOX50 HepG2 [7]: 2.24 µM; ODA TOX50 HepG2 [7]: 23.9883 µM
9 | Cc1cc(Nc2ccncc2)n2nc(C)c(-c3ccc(Cl)cc3)c2n1 [TC79] | 60.8 | 950 | 5.8 | 57.77 | 63.5 | 910 | 50 | – | –
10 | O=C(C1CC1)N1c2ccccc2CCc2ccccc21 [TCMDC-123880] | – | – | – | 100.00 | – | – | – | – | Selectivity Ratio M ([1]; HepG2 Tox50 versus male IC50): 180.08; Cytotox ratio Pf Male ([1]; Mean TOX HepG2 over DGFA IC50 MALE, GREEN = >10-fold, RED = <10-fold): 178.6; inhibition at 2 µM ([1]; Plasmodium falciparum, average of replicates, read-out: Average inhibition male (%)): 95.8%; inhibition at 2 µM ([1]; Plasmodium falciparum, replicate R1, read-out: % inhibition male (individual replicates) R1): 98.9%; inhibition at 2 µM ([1]; Plasmodium falciparum, replicate R2, read-out: % inhibition male (individual replicates) R2): 92.4%; inhibition at 2 µM ([1]; Plasmodium falciparum, replicate R3, read-out: % inhibition male (individual replicates) R3): 99.8%; inhibition at 2 µM ([1]; Plasmodium falciparum, replicate R4, read-out: % inhibition male (individual replicates) R4): 92.2%; IC50 ([1]; Plasmodium falciparum, PfDGFA, 24 h incubation with gametocytes before induction, exflagellation readout, read-out: Male IC50): 560 nM; Selectivity ratio F ([2]; HepG2 Tox50 versus female IC50): 10; Cytotox ratio Pf Female ([2]; Mean TOX HepG2 over DGFA IC50 FEM, GREEN = >10-fold, RED = <10-fold): 10.0; inhibition at 2 µM ([2]; Plasmodium falciparum, average of replicates, read-out: Average inhibition female (%)): 7.7%; inhibition at 2 µM ([2]; Plasmodium falciparum, replicate R1, read-out: % inhibition female (individual replicates) R1): 12.4%; inhibition at 2 µM ([2]; Plasmodium falciparum, replicate R2, read-out: % inhibition female (individual replicates) R2): -4.3%; inhibition at 2 µM ([2]; Plasmodium falciparum, replicate R3, read-out: % inhibition female (individual replicates) R3): 22.7%; inhibition at 2 µM ([2]; Plasmodium falciparum, replicate R4, read-out: % inhibition female (individual replicates) R4): 0.07%; IC50 ([2]; Plasmodium falciparum, PfDGFA, 24 h incubation with gametocytes before induction, female gamete readout, read-out: Female IC50): > 10000 nM; effect on exflagellation [3, 13]: strongly inhibited exflagellation; DGFA Tox50 HepG2 [4]: 100 µM
11 | CC[C@]1(O)C[C@@H]2CN(CCc3c([nH]c4ccccc34)[C@@](C(=O)OC)(c3cc4c(cc3OC)N(C)[C@H]3[C@@](O)(C(=O)OC)[C@H](OC(C)=O)[C@]5(CC)C=CCN6CC[C@]43[C@@H]65)C2)C1 [vinblastine, reference compound] | – | – | – | – | – | – | – | – | effect on exflagellation [3, 13]: strongly inhibited exflagellation

From publication PMC10584170, “Machine learning-based phenotypic imaging to characterise the targetable biology of Plasmodium falciparum male gametocytes for the development of transmission-blocking antimalarials” (PLOS Pathogens, 2023)
